Results reported in article PMC8138313, “Identification, Selection and Immune Assessment of Liver Stage CD8 T Cell Epitopes From Plasmodium falciparum” (Frontiers in Immunology, 2021).
Where a SMILES comes first, the peptide text is derived from it.

Assays:
HLA A*0301 = HLA A*0301 (Homo sapiens, UniProt P04439); assay: HLA class I binding assay (cell-free competition, fluorescence polarization)
HLA A*0201 = HLA A*0201 (Homo sapiens, UniProt P04439, D140Y/D185E/D98H/E176V/E277Q/G131W/G231S/I119V/I121R/I166T/I218V/L300P/L318F/N151K/N90K/P208A/P217A/Q86G/Q94H/R138H/R169H/T345S); assay: as above

Compound	IC50 (HLA A*0301) [µM]	IC50 (HLA A*0201) [µM]
CC(C)C[C@H](NC(=O)[C@H](C)N)C(=O)N[C@@H](CC(N)=O)C(=O)N[C@@H](CC(C)C)C(=O)N[C@@H](Cc1ccccc1)C(=O)N[C@@H](Cc1ccccc1)C(=O)N[C@@H](CCC(N)=O)C(=O)N[C@@H](CC(N)=O)C(=O)N[C@@H](CCCCN)C(=O)O (H-ALNLFFQNK-OH)	1.14	
CC(C)C[C@H](NC(=O)[C@H](Cc1ccccc1)NC(=O)[C@H](CO)NC(=O)[C@H](Cc1ccccc1)NC(=O)[C@H](CS)NC(=O)[C@@H](N)Cc1ccccc1)C(=O)N[C@@H](CCCCN)C(=O)N[C@@H](CO)C(=O)N[C@@H](CO)C(=O)N[C@@H](CCCCN)C(=O)O (H-FCFSFLKSSK-OH)	9.21	
CC(C)C[C@H](NC(=O)[C@H](CC(C)C)NC(=O)[C@H](CC(N)=O)NC(=O)[C@H](CC(C)C)NC(=O)[C@H](CC(C)C)NC(=O)[C@@H](N)Cc1ccccc1)C(=O)N[C@@H](CC(N)=O)C(=O)N[C@@H](CCC(=O)O)C(=O)N[C@@H](Cc1c[nH]cn1)C(=O)N[C@H](C(=O)O)C(C)C (H-FLLNLLNEHV-OH)		1.68
CC[C@H](C)[C@H](NC(=O)CN)C(=O)N[C@@H](C)C(=O)N[C@@H](CC(N)=O)C(=O)N[C@@H](CC(=O)O)C(=O)N[C@@H](CC(C)C)C(=O)N[C@@H](CO)C(=O)N[C@H](C(=O)N[C@@H](CC(C)C)C(=O)O)[C@@H](C)O (H-GIANDLSTL-OH)		5.73
CSCC[C@H](NC(=O)[C@@H](NC(=O)[C@H](CC(=O)O)NC(=O)[C@H](Cc1c[nH]cn1)NC(=O)[C@@H]1CCCN1C(=O)[C@H](CO)NC(=O)[C@H](CC(C)C)NC(=O)CN)[C@@H](C)O)C(=O)N[C@@H](CCC(N)=O)C(=O)N[C@@H](CCCCN)C(=O)O (H-GLSPHDTMQK-OH)	1.1	
CC[C@H](C)[C@H](N)C(=O)N[C@@H](CC(C)C)C(=O)N[C@H](C(=O)N[C@@H](CO)C(=O)N[C@@H](CCCNC(=N)N)C(=O)N[C@@H](CC(C)C)C(=O)N[C@H](C(=O)N[C@@H](CC(C)C)C(=O)N[C@@H](CCCCN)C(=O)O)[C@@H](C)O)[C@@H](C)CC (H-ILISRLTLK-OH)	0.22	
CC[C@H](C)[C@H](N)C(=O)N[C@@H](CC(C)C)C(=O)N[C@@H](Cc1ccc(O)cc1)C(=O)N[C@@H](CCCCN)C(=O)N[C@@H](CC(N)=O)C(=O)N[C@H](C(=O)N[C@@H](CC(=O)O)C(=O)N[C@@H](CS)C(=O)N[C@H](C(=O)O)C(C)C)[C@@H](C)CC (H-ILYKNIDCV-OH)		1.4
CC[C@H](C)[C@H](NC(=O)[C@H](Cc1ccccc1)NC(=O)[C@H](CO)NC(=O)[C@H](CO)NC(=O)[C@@H](NC(=O)[C@@H](N)CCCCN)[C@@H](C)CC)C(=O)N[C@@H](CC(N)=O)C(=O)N[C@@H](CCC(N)=O)C(=O)N[C@@H](CCCNC(=N)N)C(=O)N[C@@H](CCCCN)C(=O)O (H-KISSFINQRK-OH)	0.316	
CC(C)C[C@H](NC(=O)[C@H](CC(=O)O)NC(=O)[C@H](CC(C)C)NC(=O)[C@H](CO)NC(=O)[C@@H]1CCCN1C(=O)[C@H](CCCCN)NC(=O)[C@H](CC(N)=O)NC(=O)[C@H](CC(C)C)NC(=O)[C@H](CC(C)C)NC(=O)[C@@H](N)CCCCN)C(=O)O (H-KLLNKPSLDL-OH)	2.36	4.26
CSCC[C@H](NC(=O)[C@H](CC(N)=O)NC(=O)[C@H](Cc1ccc(O)cc1)NC(=O)[C@H](CC(N)=O)NC(=O)[C@H](CC(=O)O)NC(=O)[C@H](Cc1ccc(O)cc1)NC(=O)[C@H](CC(N)=O)NC(=O)[C@@H](N)CCCCN)C(=O)N[C@@H](CCCCN)C(=O)O (H-KNYDNYNMK-OH)	2.51	
CC[C@H](C)[C@H](NC(=O)[C@H](CC(=O)O)NC(=O)[C@@H](NC(=O)[C@H](CO)NC(=O)[C@@H](NC(=O)[C@@H](N)CC(C)C)[C@@H](C)CC)[C@@H](C)O)C(=O)N[C@H](C(=O)N[C@@H](Cc1ccccc1)C(=O)N[C@@H](CC(C)C)C(=O)O)[C@@H](C)CC (H-LISTDIIFL-OH)		0.614
CC(C)C[C@H](NC(=O)[C@H](CC(N)=O)NC(=O)[C@H](C)NC(=O)[C@H](C)NC(=O)[C@H](CCCCN)NC(=O)[C@H](CCC(N)=O)NC(=O)[C@H](Cc1ccccc1)NC(=O)[C@H](CC(C)C)NC(=O)[C@@H](N)CC(C)C)C(=O)O (H-LLFQKAANL-OH)		1.88
CC[C@H](C)[C@H](NC(=O)[C@H](CCSC)NC(=O)[C@H](CCCCN)NC(=O)[C@H](CCSC)NC(=O)[C@@H](NC(=O)[C@@H](N)CC(C)C)[C@@H](C)O)C(=O)N[C@@H](CC(N)=O)C(=O)N[C@@H](CC(N)=O)C(=O)N[C@@H](CCCCN)C(=O)O (H-LTMKMINNK-OH)	0.472	
CSCC[C@H](N)C(=O)N[C@@H](CC(=O)O)C(=O)N[C@@H](Cc1ccccc1)C(=O)N1CCC[C@H]1C(=O)N[C@@H](CCCCN)C(=O)N[C@@H](CC(C)C)C(=O)N[C@@H](CC(C)C)C(=O)N[C@@H](CC(N)=O)C(=O)N[C@@H](CCCCN)C(=O)O (H-MDFPKLLNK-OH)	2.08	
CC(C)C[C@H](NC(=O)[C@@H](N)CC(N)=O)C(=O)N[C@@H](Cc1ccccc1)C(=O)N[C@@H](CCC(=O)O)C(=O)N[C@@H](Cc1c[nH]c2ccccc12)C(=O)N[C@@H](CO)C(=O)N[C@@H](CCCCN)C(=O)N[C@H](C(=O)N[C@H](C(=O)O)C(C)C)[C@@H](C)O (H-NLFEWSKTV-OH)		1.62
CC[C@H](C)[C@H](NC(=O)[C@H](CO)NC(=O)[C@H](CCCCN)NC(=O)[C@H](CC(N)=O)NC(=O)[C@H](CCC(N)=O)NC(=O)[C@H](Cc1ccccc1)NC(=O)[C@H](Cc1ccccc1)NC(=O)[C@H](CC(C)C)NC(=O)[C@@H](N)CC(N)=O)C(=O)O (H-NLFFQNKSI-OH; N-terminus assumed)		> 1000
CC(C)C[C@H](NC(=O)[C@H](CC(N)=O)NC(=O)[C@H](CC(C)C)NC(=O)[C@@H](N)CC(N)=O)C(=O)N[C@@H](CS)C(=O)NCC(=O)N[C@@H](CCCCN)C(=O)N[C@@H](Cc1ccc(O)cc1)C(=O)N[C@H](C(=O)N[C@@H](CCCCN)C(=O)O)[C@@H](C)O (H-NLNLCGKYTK-OH; N-terminus assumed)	> 1000	
CC[C@H](C)[C@H](NC(=O)[C@H](CC(N)=O)NC(=O)[C@H](CCC(N)=O)NC(=O)[C@H](CCC(N)=O)NC(=O)[C@H](Cc1ccc(O)cc1)NC(=O)[C@H](CCSC)NC(=O)[C@@H](N)CC(N)=O)C(=O)N1CCC[C@H]1C(=O)N[C@@H](CC(C)C)C(=O)O (H-NMYQQNIPL-OH)		331
CC[C@H](C)[C@H](NC(=O)[C@@H]1CCCN1C(=O)[C@H](Cc1ccc(O)cc1)NC(=O)[C@H](CC(=O)O)NC(=O)[C@H](Cc1ccccc1)NC(=O)[C@@H](NC(=O)[C@@H](N)CCC(N)=O)C(C)C)C(=O)N[C@@H](CCC(=O)O)C(=O)N[C@@H](CCCCN)C(=O)O (H-QVFDYPIEK-OH)	1.57	
CC[C@H](C)[C@H](NC(=O)[C@@H](N)CCCNC(=N)N)C(=O)N[C@@H](CO)C(=O)NCC(=O)N[C@@H](Cc1c[nH]c2ccccc12)C(=O)N[C@@H](CCCCN)C(=O)NCC(=O)N[C@@H](CC(=O)O)C(=O)N[C@@H](CC(N)=O)C(=O)N[C@@H](CCCCN)C(=O)O (H-RISGWKGDNK-OH)	0.548	
CC[C@H](C)[C@H](NC(=O)[C@H](CO)NC(=O)[C@H](CCCNC(=N)N)NC(=O)[C@H](CC(N)=O)NC(=O)[C@H](CC(N)=O)NC(=O)[C@H](CC(C)C)NC(=O)[C@@H](N)CCCNC(=N)N)C(=O)N[C@@H](Cc1ccc(O)cc1)C(=O)N[C@@H](CCCCN)C(=O)O (H-RLNNRSIYK-OH)	0.224	
CC(C)C[C@H](NC(=O)[C@H](Cc1ccccc1)NC(=O)[C@@H](NC(=O)[C@H](CCCCN)NC(=O)[C@H](CCCCN)NC(=O)[C@H](CO)NC(=O)[C@@H](N)CCCNC(=N)N)[C@@H](C)O)C(=O)N[C@H](C(=O)N[C@@H](CCCCN)C(=O)O)C(C)C (H-RSKKTFLVK-OH)	0.409	
CC[C@H](C)[C@H](NC(=O)[C@H](CO)NC(=O)[C@H](Cc1ccccc1)NC(=O)[C@@H](NC(=O)[C@H](CO)NC(=O)CNC(=O)[C@H](CO)NC(=O)[C@H](CO)NC(=O)[C@@H](N)CCCNC(=N)N)[C@@H](C)O)C(=O)N[C@@H](CCCCN)C(=O)O (H-RSSGSTFSIK-OH)	0.326	
CC[C@H](C)[C@H](NC(=O)[C@@H](N)CO)C(=O)N[C@@H](CO)C(=O)N[C@@H](CC(=O)O)C(=O)N[C@@H](Cc1ccc(O)cc1)C(=O)N[C@H](C(=O)N[C@@H](CCCCN)C(=O)N[C@@H](CO)C(=O)N[C@@H](CC(C)C)C(=O)O)[C@@H](C)O (H-SISDYTKSL-OH)		352
CC[C@H](C)[C@H](NC(=O)[C@H](CC(N)=O)NC(=O)[C@@H](NC(=O)[C@H](CCSC)NC(=O)[C@@H](N)CO)[C@@H](C)O)C(=O)N1CCC[C@H]1C(=O)N[C@@H](CCSC)C(=O)N[C@@H](CC(N)=O)C(=O)N[C@H](C(=O)O)C(C)C (H-SMTNIPMNV-OH)		0.244
CSCC[C@H](NC(=O)[C@H](CC(N)=O)NC(=O)[C@H](CCC(N)=O)NC(=O)[C@H](CC(N)=O)NC(=O)[C@H](C)NC(=O)[C@H](CCSC)NC(=O)[C@@H](N)[C@@H](C)O)C(=O)N[C@@H](CC(N)=O)C(=O)N[C@@H](Cc1ccc(O)cc1)C(=O)N[C@@H](CCCCN)C(=O)O (H-TMANQNMNYK-OH)	0.209	
CC[C@H](C)[C@H](NC(=O)CNC(=O)[C@H](Cc1ccc(O)cc1)NC(=O)[C@H](Cc1c[nH]cn1)NC(=O)[C@@H](NC(=O)[C@@H](N)C(C)C)[C@@H](C)CC)C(=O)N[C@@H](CC(N)=O)C(=O)N1CCC[C@H]1C(=O)N[C@H](C(=O)O)C(C)C (H-VIHYGINPV-OH)		1.7
CC[C@H](C)[C@H](NC(=O)[C@H](CC(=O)O)NC(=O)[C@H](CC(N)=O)NC(=O)[C@H](CC(N)=O)NC(=O)[C@H](CC(C)C)NC(=O)[C@@H](N)Cc1c[nH]c2ccccc12)C(=O)N[C@@H](Cc1ccc(O)cc1)C(=O)N[C@@H](CC(N)=O)C(=O)N[C@H](C(=O)O)C(C)C (H-WLNNDIYNV-OH)		0.16
CC[C@H](C)[C@H](NC(=O)[C@@H](NC(=O)[C@@H](NC(=O)[C@H](CCCCN)NC(=O)[C@H](CC(N)=O)NC(=O)[C@H](CCCCN)NC(=O)[C@H](CC(N)=O)NC(=O)[C@@H](NC(=O)[C@@H](NC(=O)[C@@H](N)Cc1ccc(O)cc1)[C@@H](C)CC)[C@@H](C)O)C(C)C)[C@@H](C)O)C(=O)O (H-YITNKNKVTI-OH; N-terminus assumed)		> 1000
